How the values were obtained:
[1] = Caco Permeability Assay; format: in vitro ADME; settings: human, Caco-2, Caco-2 cells, 3 μM compound
Procedure: Thirteen to 27 days prior to assay, Caco-2 cells were seeded onto collagen-coated polycarbonate filter membranes in 24-well transwell plates at a density of 1.45×10^5 cells/cm^2, approximately 4.8×10^4 cells per well. The cells were grown in a culture medium consisting of DMEM supplemented with 10% fetal bovine serum, 10 mM HEPES, 1% nonessential amino acids, 2 mM L-glutamine, 100 U/mL penicillin-G, and 100 μg/mL streptomycin. The culture medium was replaced every 3 days and the cells were maintained at 37° C. in a 95% relative humidity and 5% CO2 atmosphere. The cells were evaluated for tight junction formation just prior to assay. The test compound was solubilized to 10 mM in 100% DMSO and diluted to 3 μM in assay buffer. Permeability studies were initiated by adding 200 μL assay buffer plus/minus compound to the apical transwell compartment and 600 μL assay buffer plus/minus compound to the basolateral compartment of the 24-well transwell low-binding cluster plate. For apical-to-basolateral (A to B) permeability (absorptive direction), buffer containing compound was placed in the apical compartment (donor wells), while buffer alone was placed in the corresponding basolateral compartments (receiver wells). For basolateral-to-apical (B to A) permeability (secretive direction), buffer containing compound was placed in the basolateral compartment (donor wells), while buffer alone was placed in the corresponding apical compartments (receiver wells). Transwells were then incubated for 2 hours at 37° C. in a 95% relative humidity and 5% CO2 atmosphere with gentle agitation. Following incubation, 100 μL was removed from each apical and basolateral compartment and transferred to 96-well low binding plates that had been previously loaded with 100 µL/well of acetonitrile containing 250 nM propranolol, 250 nM diclofenac, and 500 nM tolbutamide as internal standards. The samples were subsequently analyzed by LC-MS/MS to determine concentrations of compound.

[2] = system: IL-6 levels in human whole blood stimulated with a TLR2 agonist; experiment: IRAK4 Whole Blood Assay (lipoteichoic acid/TLR2-stimulated IL-6); format: cell-based; settings: lipoteichoic acid 10 μg/mL, IL-6 readout
In short: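 IL-6 was quantified by cytometric bead assay in supernatants of human blood (ACD-A) stimulated for 5 h with lipoteichoic acid at 10 μg/mL final. Compound exposure preceded stimulation for 60 min at 37 °C, 5% CO2.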

[3] = target: IRAK4 (Homo sapiens (Human), UniProt Q9NWZ3); experiment: IRAK4 Inhibition Assay; format: biochemical; settings: ATP 500 μM; IRAK4 0.6 nM
In short: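 Mobility-shift kinase assay: 0.6 nM IRAK4, 500 μM ATP, 1.5 μM fluorescent peptide, 60 min, room temperature. Percent inhibition was normalised between enzyme-free and DMSO-only wells.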

Chain of IRAK4 (Q9NWZ3 whole entry): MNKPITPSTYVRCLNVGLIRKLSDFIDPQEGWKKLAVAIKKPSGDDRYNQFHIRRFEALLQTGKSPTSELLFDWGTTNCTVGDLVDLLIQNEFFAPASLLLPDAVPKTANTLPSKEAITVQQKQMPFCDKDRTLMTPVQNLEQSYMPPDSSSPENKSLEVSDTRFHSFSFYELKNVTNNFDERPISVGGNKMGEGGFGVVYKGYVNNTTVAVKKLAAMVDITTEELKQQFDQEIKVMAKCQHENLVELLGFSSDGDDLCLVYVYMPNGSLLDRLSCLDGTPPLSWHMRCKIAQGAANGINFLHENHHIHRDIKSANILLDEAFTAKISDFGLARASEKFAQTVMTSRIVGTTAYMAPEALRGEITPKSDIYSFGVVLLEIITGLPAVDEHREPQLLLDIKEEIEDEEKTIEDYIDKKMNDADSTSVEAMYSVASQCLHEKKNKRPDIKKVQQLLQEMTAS

Papp at 2 h, 3 µM [1] [×10⁻⁶ cm/s] | EC50 ([2]; Homo sapiens) [nM] | IC50 [3] [nM] | EC50 [2] [nM] | SMILES
< 1.5 | 280 | 2 |  | CC(C)Nc1cc(-c2cnc3cc(C#N)cnn23)ncc1C(=O)NCC(F)C1CCNCC1 (centres unmarked) [Example 197, 6-(7-cyanoimidazo[1,2-b]pyridazin-3-yl)-N-(2-fluoro-2-(piperidin-4-yl)ethyl)-4-(isopropylamino)nicotinamide]
< 1.5 |  | 3 | 660 | CC(C)(O)[C@H](F)CNC(=O)c1cnc(-c2cnn3cc(C#N)cnc23)cc1Nc1cnn(CC(F)(F)F)c1 [Example 236, (R)-6-(6-cyanopyrazolo[1,5-a]pyrimidin-3-yl)-N-(2-fluoro-3-hydroxy-3-methylbutyl)-4-((1-(2,2,2-trifluoroethyl)-1H-pyrazol-4-yl)amino) nicotinamide]
15.3 | 610 | 6 |  | CC(C)(O)[C@H](F)CNC(=O)c1cnc(-c2cnc3cc(Cl)cnn23)cc1NCCC(F)(F)F [Example 190, (R)-6-(7-chloroimidazo[1,2-b]pyridazin-3-yl)-N-(2-fluoro-3-hydroxy-3-methylbutyl)-4-((3,3,3-trifluoropropyl)amino)nicotinamide]
29.9 | 500 | 10 |  | CC(C)(C)CCNC(=O)c1cnc(-c2cnc3cc(Cl)cnn23)cc1NC1COC1 [Example 192, 6-(7-chloroimidazo[1,2-b]pyridazin-3-yl)-N-(3,3-dimethylbutyl)-4-(oxetan-3-ylamino)nicotinamide]
7 | 1030 | 4 |  | CC(CCF)Nc1cc(-c2cnn3cc(C#N)cnc23)ncc1C(=O)NC[C@@H](F)C(C)(C)O (stereo partly drawn) [Example 106, 6-(6-cyanopyrazolo[1,5-a]pyrimidin-3-yl)-N—((R)-2-fluoro-3-hydroxy-3-methylbutyl)-4-((4-fluorobutan-2-yl)amino)nicotinamide]
< 1.5 | 710 | 2 |  | CC(C)(O)[C@H](F)CNC(=O)c1cnc(-c2cnn3cc(Cl)cnc23)cc1NC12CCC(O)(CC1)C2 [Example 73, (R)-6-(6-chloropyrazolo[1,5-a]pyrimidin-3-yl)-N-(2-fluoro-3-hydroxy-3-methylbutyl)-4-((4-hydroxybicyclo[2.2.1]heptan-1-yl)amino)nicotinamide]
1.8 | 720 | 10 |  | CC(=O)N[C@H]1CC[C@H](NC(=O)c2cnc(-c3cnn4cc(Cl)cnc34)cc2NC(C)C)CC1 [Example 23, N-((1r,4r)-4-acetamidocyclohexyl)-6-(6-chloropyrazolo[1,5-a]pyrimidin-3-yl)-4-(isopropylamino) nicotinamide]
< 1.5 | 430 |  |  | CC(C)(O)[C@H](F)CNC(=O)c1cnc(-c2cnn3cc(C#N)cnc23)cc1NC1CCC(F)(F)C1O (stereo partly drawn) [Example 107, 6-(6-cyanopyrazolo[1,5-a]pyrimidin-3-yl)-4-((3,3-difluoro-2-hydroxycyclopentyl)amino)-N—((R)-2-fluoro-3-hydroxy-3-methylbutyl)nicotinamide]
5 | 2970 |  |  | CC(C)(F)CNc1cc(-c2cnn3cc(C#N)cnc23)ncc1C(=O)NC[C@@H](F)C(C)(C)O [Example 91, (R)-6-(6-cyanopyrazolo[1,5-a]pyrimidin-3-yl)-4-((2-fluoro-2-methylpropyl)amino)-N-(2-fluoro-3-hydroxy-3-methylbutyl)nicotinamide]
8.3 | 270 |  |  | CC(C)(O)[C@H](F)CNC(=O)c1cnc(-c2cnn3cc(C#N)cnc23)cc1NC1CCC1 [Example 96, (R)-6-(6-cyanopyrazolo[1,5-a]pyrimidin-3-yl)-4-(cyclobutylamino)-N-(2-fluoro-3-hydroxy-3-methylbutyl)nicotinamide]
< 1.5 | 2960 |  |  | CC(=O)N[C@H]1CC[C@H](NC(=O)c2cnc(-c3cnn4cc(C#N)cnc34)cc2NC(C)C)CC1 [Example 89, N-((1r,4r)-4-acetamidocyclohexyl)-6-(6-cyanopyrazolo[1,5-a]pyrimidin-3-yl)-4-(isopropylamino)nicotinamide]
 | 750 | 2 |  | CC[C@@H](C)Nc1cc(-c2cnc3cc(Cl)cnn23)ncc1C(=O)NC[C@@H](F)C(C)(C)O [Example 202, 4-(((R)-sec-butyl)amino)-6-(7-chloroimidazo[1,2-b]pyridazin-3-yl)-N—((R)-2-fluoro-3-hydroxy-3-methylbutyl)nicotinamide]
 | 820 | 5 |  | CC(C)Nc1cc(-c2cnn3cc(C#N)cnc23)ncc1C(=O)NC[C@@H](F)C(C)(C)OC(F)F [Example 170, (R)-6-(6-cyanopyrazolo[1,5-a]pyrimidin-3-yl)-N-(3-(difluoromethoxy)-2-fluoro-3-methylbutyl)-4-(isopropylamino)nicotinamide]
 | 860 | 6 |  | C[C@H](CO)Nc1cc(-c2cnn3cc(C#N)cnc23)ncc1C(=O)NC[C@@H](F)C(C)(C)O [Example 98, 6-(6-cyanopyrazolo[1,5-a]pyrimidin-3-yl)-N—((R)-2-fluoro-3-hydroxy-3-methylbutyl)-4-(((R)-1-hydroxypropan-2-yl)amino)nicotinamide]
 | 1050 | 7 |  | CNC(=O)[C@H]1CC[C@H](NC(=O)c2cnc(-c3cnn4cc(Cl)cnc34)cc2NC(C)C)CC1 [Example 27, 6-(6-chloropyrazolo[1,5-a]pyrimidin-3-yl)-4-(isopropylamino)-N-((1r,4r)-4-(methylcarbamoyl)cyclohexyl) nicotinamide]
 | 660 | 5 |  | CCO[C@H]1CC[C@H](NC(=O)c2cnc(-c3cnn4cc(Cl)cnc34)cc2NC(C)C)CC1 [Example 166, 6-(6-chloropyrazolo[1,5-a]pyrimidin-3-yl)-N-((1r,4r)-4-ethoxycyclohexyl)-4-(isopropylamino)nicotinamide]
 | 350 | 7 |  | O=C(N[C@H]1CC[C@H](C(=O)NC2CC2)CC1)c1cnc(-c2cnn3cc(Cl)cnc23)cc1NC1COC1 [Example 41, 6-(6-chloropyrazolo[1,5-a]pyrimidin-3-yl)-N-((1r,4r)-4-(cyclopropylcarbamoyl)cyclohexyl)-4-(oxetan-3-ylamino)nicotinamide]
 | 710 | 4 |  | COC(C)(C)[C@H]1CC[C@H](NC(=O)c2cnc(-c3cnc4cc(C#N)cnn34)cc2NC(C)C)CC1 [Example 174, 6-(7-cyanoimidazo[1,2-b]pyridazin-3-yl)-4-(isopropylamino)-N-((1r,4r)-4-(2-methoxypropan-2-yl)cyclohexyl)nicotinamide]
 | 2340 | 3 |  | [2H]C([2H])([2H])OC(C)(C)[C@H](F)CNC(=O)c1cnc(-c2cnn3cc(Cl)cnc23)cc1NC(C)C [Example 57, (R)-6-(6-chloropyrazolo[1,5-a]pyrimidin-3-yl)-N-(2-fluoro-3-trideuteromethoxy-3-methylbutyl)-4-(isopropylamino)nicotinamide]
 | 390 | 9 |  | CC(C)(O)[C@H](F)CNC(=O)c1cnc(-c2cnc3cc(C#N)cnn23)cc1N[C@@H]1CCN(c2ncc(F)cn2)C1 [Example 288, 6-(7-cyanoimidazo[1,2-b]pyridazin-3-yl)-N—((R)-2-fluoro-3-hydroxy-3-methylbutyl)-4-(((R)-1-(5-fluoropyrimidin-2-yl)pyrrolidin-3-yl)amino)nicotinamide]
 | 380 | 7 |  | CC(C)(O)[C@H](F)CNC(=O)c1cnc(-c2cnc3cc(C#N)cnn23)cc1Nc1cnn(C(F)F)c1 [Example 273, (R)-6-(7-cyanoimidazo[1,2-b]pyridazin-3-yl)-4-((1-(difluoromethyl)-1H-pyrazol-4-yl)amino)-N-(2-fluoro-3-hydroxy-3-methylbutyl)nicotinamide]
 | 720 | 5 |  | Cn1cc(Nc2cc(-c3cnn4cc(Cl)cnc34)ncc2C(=O)NCCC(C)(C)O)cn1 [Example 255, 6-(6-chloropyrazolo[1,5-a]pyrimidin-3-yl)-N-(3-hydroxy-3-methylbutyl)-4-((1-methyl-1H-pyrazol-4-yl)amino)nicotinamide]
 | 710 | 2 |  | CC(C)(F)Cn1cc(Nc2cc(-c3cnc4cc(C#N)cnn34)ncc2C(=O)NC[C@@H](F)C(C)(C)F)cn1 [Example 282, (R)-6-(7-cyanoimidazo[1,2-b]pyridazin-3-yl)-N-(2,3-difluoro-3-methylbutyl)-4-((1-(2-fluoro-2-methylpropyl)-1H-pyrazol-4-yl)amino)nicotinamide]

From US10618903B2, “Heteroaryl substituted aminopyridine compounds” (BRISTOL-MYERS SQUIBB COMPANY, priority 2015, dated 2020)
